Laboratory results taken from paper PMC8682738, “Constrained peptides mimic a viral suppressor of RNA silencing” (Nucleic Acids Research, 2021).
Several values for one entry are separate records, joined by “and”; a condition that tells them apart may be missing. Identical values can stand only once. Positions of bridges follow the written chain, without caps; N, C: chain ends. Non-standard residues stand in square brackets, D forms with d. Residues, ends and D or L forms follow the SMILES beside them. *: point of attachment. FITC = O=C1OC2(c3ccc(O)cc3Oc3cc(O)ccc32)c2ccc(NC(=S)*)cc21; R8 = C=CCCCCCC[C@@](C)(N)C(=O)O; S5 = C=CCCC[C@](C)(N)C(=O)O; AEEA = NCCOCCOCC(=O)O

Legend:
[1] = CD spectroscopy, secondary structure content; type: physicochemical; conditions: fluorescein-labeled peptide 75 μM, 10 mM sodium phosphate pH 7.4, CDNN/PEPFIT; for Helix (α-helicity): unbound
Procedure: Spectra of fluorescein-labeled peptides were recorded with a J-715 circular dichroism spectrometer (Jasco) using a stoppered quartz cuvette (1 mm; Hellma). Peptide samples (c = 75 μM) were prepared in buffer: 10 mM disodium hydrogen phosphate, pH 7.4. For each sample, 10 CD spectra were measured between λ = 190 and 260 nm with continuous scan mode (10 mdeg sensitivity, 1.0 nm resolution, 1.0 nm bandwidth, 2 s integration time, 50 nm/min scan rate). Obtained spectra were averaged, then subtracted from a reference buffer spectrum and smoothed using a fast Fourier transform filter (FFT filter). The mean residue ellipticity (Θ) (deg·cm^2·dmol^−1·10^4) was calculated using Formula (2) and plotted against wavelength (λ) (nm). The ratio of secondary structure elements was calculated with CDNN using the PEPFIT set of reference spectra for secondary structure determination ([45],[46]):(2) where [Θ]m = mean molar ellipticity per peptide bond (degree·cm^2·dmol^−1·10^4), Θ = measured ellipticity (degree), d = optical path length (cm), cg = mass concentration (g·l^−1), MRW = mean residue weight, M = molar mass of the peptide (g·mol^−1) and N = number of peptide bonds.

[2] = molecular target: proteinase K (Parengyodontium album, UniProt P06873); experiment: Protease stability assay; type: in vitro ADME; conditions: proteinase K 10 μg·ml^−1, fluorescein-labeled peptide 50 μM, 10 mM Tris pH 8.0, 150 mM NaCl, room temperature, HPLC absorbance 210 nm, exponential decay fit
Sequence of proteinase K (P06873 106-384): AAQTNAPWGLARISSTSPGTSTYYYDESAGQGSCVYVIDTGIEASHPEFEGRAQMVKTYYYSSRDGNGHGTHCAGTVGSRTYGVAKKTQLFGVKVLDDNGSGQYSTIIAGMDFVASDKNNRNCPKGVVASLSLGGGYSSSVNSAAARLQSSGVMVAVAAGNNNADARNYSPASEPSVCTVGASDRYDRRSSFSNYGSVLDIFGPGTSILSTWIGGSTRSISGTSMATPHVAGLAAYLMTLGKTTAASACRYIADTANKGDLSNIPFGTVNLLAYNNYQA
Procedure: Protease stability assays were performed in analogy to a previously published protocol ([47]). Stocks of fluorescein-labeled peptides were prepared to a concentration of 55.5 μM in assay buffer (10 mM Tris, pH 8.0, 150 mM NaCl) and separately stocks of proteinase K also in assay buffer (c = 100 μg·ml^−1). To begin each experiment, peptide and proteinase K stocks were mixed (final concentrations: c = 10 μg·ml^−1 proteinase K, c = 50 μM fluorescein-labeled peptide; final volume = 500 μl) and incubated at room temperature. At each time point, 50 μl of the reaction mixture was quenched by adding 100 μl of TFA/ACN/H2O (v/v/v, 1:49:49) and subsequently incubated for 2 min on ice. Following centrifugation (15 min, 13200 rpm, 4°C), samples (45 μl) were monitored by analytical HPLC using a linear gradient of 10–60% HPLC solvent B over 20 min. The amount of remaining peptide was quantified via absorbance at λ = 210 nm (intact peptide (%)) and plotted against time (t) (h). Half-life (t1/2) was calculated by fitting the data to an exponential decay using the software Prism 5.0 (GraphPad).

[3] = molecular target: pal-RNA duplex; experiment: ITC of N-terminally acetylated peptides with pal-RNA duplex; type: binding
Procedure: Isothermal titration calorimetry (ITC) was conducted using a MicroCal VP-ITC (Malvern Panalytical). Before measurement, oligonucleotide and peptide samples were dissolved in PBS and degassed using a ThermoVac (Malvern Panalytical) and heated to 30°C. N-terminally acetylated peptides (c = 3–12 μM) were then transferred into the sample cell and oligonucleotides (c = 12–72 μM) were transferred into the syringe. 35 Injections per measurement were performed at 30°C (8 μl injection volume, 2 s injection time, 180 s spacing, high feedback mode) with an initial delay of 60 s and a stirring speed of 307 rpm. Measurements were performed in triplicate. Using the MicroCal LLC ITC software (Origin; OriginLab Corporation), the heat associated with each injection was calculated by integrating the area under the curve in microcalories per second [μca/s] versus time [min] for each injection and then normalized to concentration. A ‘single set of identical binding sites’ model was used to fit the binding curves from which thermodynamic binding parameters (ΔG, ΔH, ΔS, N and Kd) were obtained.

[4] = system: ds pal-RNA; experiment: EMSA with ds pal-RNA; type: binding; conditions: fluorescein-labeled peptide 6 μM, RNA 3 μM, 10% native PAGE, 4°C
Procedure: Electrophoretic mobility shift assays (EMSAs) were performed using a Bio-Rad Mini-Protean gel system paired with a direct current (DC) power source (PowerPac™ HC, Bio-Rad). Typically, 6 μl solutions containing ds RNA (c = 3 μM) and fluorescein-labeled peptide (c = 6 μM) were incubated in binding buffer (10 mM Tris (pH 8.0), 0.5 mM EDTA, 12.5% glycerol and 150 mM KCl) at 4°C for 1 h. After incubation, bound RNA was resolved from peptide-free RNA using 10% non-denaturing polyacrylamide gels at 120 V in running buffer (25 mM Tris (pH 8.0), 200 mM glycine, 20 mM NaCl) at 4°C for 1 h. Visualization of fluorescent gel-bound species was conducted using a Typhoon Trio + fluorescence scanner (GE Healthcare Life Sciences). For nucleic acid visualization, gels were stained using 2 μl of SYBR™ gold nucleic acid gel dye (Molecular Probes) in 20 ml of TAE buffer (40 mM Tris, 1 mM EDTA, 20 mM acetic acid) for 45 min at RT before being visualized using a FluorChem™ gel documentation system (Alpha Innotech). To assess B3 binding to different ds RNA sequences (Supplementary Figure S20), 6 μl solutions containing hairpin RNA (c = 1 μM) and fluorescein-labeled B3 (c = 2 μM) were incubated in binding buffer (TAE and 10% glycerol) at RT for 1 h, and then resolved using 15% non-denaturing polyacrylamide gels (acrylamide/bis-acrylamide (19:1) in TAE) at 150 V in running buffer (TAE) at 4°C for 1.5 h. Visualization of fluorescent gel-bound species was conducted using a Bio-Rad ChemiDoc (Bio-Rad). Subsequently, gels were stained with SYBR™ gold nucleic acid gel dye (Invitrogen) as described above and visualized using the same imaging system. To assess B3 binding to pre–miR-21 (Supplementary Figure S24), the RNA was prepared at a fixed concentration (c = 1 μM) and incubated with varying concentrations of fluorescein-labeled B3 (c = 0–5 μM) in binding buffer (TAE and 10% glycerol) at RT for 1 h. After incubation, bound nucleic acid complexes were resolved using 15% non-denaturing polyacrylamide gels (acrylamide/bis-acrylamide (19:1) in TAE) at 150 V in running buffer (TAE) at 4°C for 1.5 h, followed by visualization and staining with SYBR™ gold nucleic acid gel dye (Invitrogen).

SMILES | half-life t1/2 [min] | Random coil [1] [%] | β-Sheet [1] [%] | β-Turn [1] [%] | Helix (α-helicity) [1] | Half-life (t1/2) [2] [min] | Kd ([3]; N-terminally acetylated peptide, PBS pH 7.4, 30°C, single set of identical binding sites model, triplicate, errors 1σ) [µM] | fold increased affinity compared to linear peptide wt33 ([3]; unlabeled analogs, pal-RNA) [fold] | binding to ds pal-RNA in EMSA [4]
CC(C)C[C@H](NC(=O)[C@H](CCC(=O)O)NC(=O)[C@H](CO)NC(=O)[C@H](CCCNC(=N)N)NC(=O)[C@H](CCCNC(=N)N)NC(=O)[C@H](CCC(N)=O)NC(=O)[C@H](CCC(=O)O)NC(=O)[C@H](CO)NC(=O)[C@@H]1CCCN1C(=O)[C@H](CO)NC(=O)[C@H](CCCCN)NC(=O)[C@H](Cc1c[nH]cn1)NC(=O)CNC(=O)[C@H](CCCNC(=N)N)NC(=O)[C@H](CCC(=O)O)NC(=O)[C@H](CCCCN)NC(=O)[C@H](CCCNC(=N)N)NC(=O)[C@H](CC(N)=O)NC(=O)[C@]1(C)CCCC=CCCC[C@](C)(NC(=O)[C@H](CCCNC(=N)N)NC(=O)[C@H](CCC(N)=O)NC(=O)[C@H](C)NC(=O)[C@H](CCC(N)=O)NC(=O)[C@H](CCCCN)NC(=O)[C@H](CCCCN)NC(=O)COCCOCCNC(=S)Nc2ccc3c(c2)C(=O)OC32c3ccc(O)cc3Oc3cc(O)ccc32)C(=O)N[C@@H](CCCNC(=N)N)C(=O)N[C@@H](Cc2c[nH]cn2)C(=O)N[C@@H](CCCCN)C(=O)N1)C(=O)N[C@@H](Cc1c[nH]c2ccccc12)C(=O)N[C@@H](Cc1c[nH]cn1)C(=O)N[C@@H](C)C(=O)N[C@@H](CCCNC(=N)N)C(N)=O [A2] ({FITC-AEEA}-KKQAQR[S5]RHK[S5]NRKERGHKSPSEQRRSELWHAR-NH2; staple 7-11) | 3 | 51.3 | 21.6 | 7.9 | 21.9% | 2.3 | – | – | –
CC(C)C[C@H](NC(=O)[C@H](CCC(=O)O)NC(=O)[C@H](CO)NC(=O)[C@H](CCCNC(=N)N)NC(=O)[C@H](CCCNC(=N)N)NC(=O)[C@H](CCC(N)=O)NC(=O)[C@H](CCC(=O)O)NC(=O)[C@H](CO)NC(=O)[C@@H]1CCCN1C(=O)[C@H](CO)NC(=O)[C@H](CCCCN)NC(=O)[C@H](Cc1c[nH]cn1)NC(=O)CNC(=O)[C@H](CCCNC(=N)N)NC(=O)[C@]1(C)CCCC=CCCC[C@](C)(NC(=O)[C@H](CCCCN)NC(=O)[C@H](Cc2c[nH]cn2)NC(=O)[C@H](CCCNC(=N)N)NC(=O)[C@H](CCCCN)NC(=O)[C@H](CCCNC(=N)N)NC(=O)[C@H](CCC(N)=O)NC(=O)[C@H](C)NC(=O)[C@H](CCC(N)=O)NC(=O)[C@H](CCCCN)NC(=O)[C@H](CCCCN)NC(=O)COCCOCCNC(=S)Nc2ccc3c(c2)C(=O)OC32c3ccc(O)cc3Oc3cc(O)ccc32)C(=O)N[C@@H](CC(N)=O)C(=O)N[C@@H](CCCNC(=N)N)C(=O)N[C@@H](CCCCN)C(=O)N1)C(=O)N[C@@H](Cc1c[nH]c2ccccc12)C(=O)N[C@@H](Cc1c[nH]cn1)C(=O)N[C@@H](C)C(=O)N[C@@H](CCCNC(=N)N)C(N)=O [A3] ({FITC-AEEA}-KKQAQRKRHK[S5]NRK[S5]RGHKSPSEQRRSELWHAR-NH2; staple 11-15) | 3 | 52.8 | 10.6 | 10.1 | 24.0% | 3.5 | – | – | –
CC(C)C[C@H](NC(=O)[C@H](CCC(=O)O)NC(=O)[C@H](CO)NC(=O)[C@H](CCCNC(=N)N)NC(=O)[C@H](CCCNC(=N)N)NC(=O)[C@H](CCC(N)=O)NC(=O)[C@H](CCC(=O)O)NC(=O)[C@H](CO)NC(=O)[C@@H]1CCCN1C(=O)[C@H](CO)NC(=O)[C@H](CCCCN)NC(=O)[C@H](Cc1c[nH]cn1)NC(=O)CNC(=O)[C@H](CCCNC(=N)N)NC(=O)[C@H](CCC(=O)O)NC(=O)[C@H](CCCCN)NC(=O)[C@H](CCCNC(=N)N)NC(=O)[C@H](CC(N)=O)NC(=O)[C@]1(C)CCCC=CCCCCCC[C@@](C)(NC(=O)[C@H](CCC(N)=O)NC(=O)[C@H](CCCCN)NC(=O)[C@H](CCCCN)NC(=O)COCCOCCNC(=S)Nc2ccc3c(c2)C(=O)OC32c3ccc(O)cc3Oc3cc(O)ccc32)C(=O)N[C@@H](CCC(N)=O)C(=O)N[C@@H](CCCNC(=N)N)C(=O)N[C@@H](CCCCN)C(=O)N[C@@H](CCCNC(=N)N)C(=O)N[C@@H](Cc2c[nH]cn2)C(=O)N[C@@H](CCCCN)C(=O)N1)C(=O)N[C@@H](Cc1c[nH]c2ccccc12)C(=O)N[C@@H](Cc1c[nH]cn1)C(=O)N[C@@H](C)C(=O)N[C@@H](CCCNC(=N)N)C(N)=O [A1] ({FITC-AEEA}-KKQ[R8]QRKRHK[S5]NRKERGHKSPSEQRRSELWHAR-NH2; staple 4-11) | 3 | 51.4 | 2.9 | 9.6 | 39.1% | 2.4 | – | – | –
CC(C)C[C@H](NC(=O)[C@]1(C)CCCC=CCCC[C@](C)(NC(=O)[C@H](CCC(=O)O)NC(=O)[C@H](CO)NC(=O)[C@@H]2CCCN2C(=O)[C@H](CO)NC(=O)[C@H](CCCCN)NC(=O)[C@H](Cc2c[nH]cn2)NC(=O)CNC(=O)[C@H](CCCNC(=N)N)NC(=O)[C@H](CCC(=O)O)NC(=O)[C@H](CCCCN)NC(=O)[C@H](CCCNC(=N)N)NC(=O)[C@H](CC(N)=O)NC(=O)[C@]2(C)CCCC=CCCCCCC[C@@](C)(NC(=O)[C@H](CCC(N)=O)NC(=O)[C@H](CCCCN)NC(=O)[C@H](CCCCN)NC(=O)COCCOCCNC(=S)Nc3ccc4c(c3)C(=O)OC43c4ccc(O)cc4Oc4cc(O)ccc43)C(=O)N[C@@H](CCC(N)=O)C(=O)N[C@@H](CCCNC(=N)N)C(=O)N[C@@H](CCCCN)C(=O)N[C@@H](CCCNC(=N)N)C(=O)N[C@@H](Cc3c[nH]cn3)C(=O)N[C@@H](CCCCN)C(=O)N2)C(=O)N[C@@H](CCCNC(=N)N)C(=O)N[C@@H](CCCNC(=N)N)C(=O)N[C@@H](CO)C(=O)N1)C(=O)N[C@@H](Cc1c[nH]c2ccccc12)C(=O)N[C@@H](Cc1c[nH]cn1)C(=O)N[C@@H](C)C(=O)N[C@@H](CCCNC(=N)N)C(N)=O [B1] ({FITC-AEEA}-KKQ[R8]QRKRHK[S5]NRKERGHKSPSE[S5]RRS[S5]LWHAR-NH2; staple 4-11, 24-28) | – | 13.8 | 19.0 | 13.1 | 81.8% and 82–85% | 829 | 0.26 | 5 | full disappearance of the ds pal-RNA band
